In patent publication US20100234372A1, “SUBSTITUTED 2-MERCAPTOQUINOLINE-3-CARBOXAMIDES AS KCNQ2/3 MODULATORS” (GRUNENTHAL GMBH, priority 2009, published 2010):

Biological target: T1, KCNQ2/3 channels (Homo sapiens, UniProt O43525+O43526)
T1 construct: expressed in transfected cells; host or cells: CHO-K1 cells
Assay: Fluorescence assay using a voltage-sensitive dye (fluorimetry)
Format: cell-based
Settings: for EC50: CHO-K1 cells expressing KCNQ2/3 channels; for Emax at 1 µM: 50 μM retigabine = 100%, CHO-K1 cells expressing KCNQ2/3, read-out: Fluorimetry % efficacy at 1 μM (50 μM retigabine = 100%)
Experimental: […] CHO-K1 cells expressing KCNQ2/3 channels are cultivated adherently at 37° C., 5% CO2 and 95% humidity in cell culture bottles (e.g. 80 cm^2 TC flasks, Nunc) with DMEM-high glucose (Sigma Aldrich, D7777) including 10% FCS (PAN Biotech, e.g. 3302-P270521) or alternatively MEM Alpha Medium (1×, liquid, Invitrogen, #22571), 10% foetal calf serum (FCS) (Invitrogen, #10270-106, heat-inactivated) and the necessary selection antibiotics.
Before being seeded out for the measurements, the cells are washed with a 1×DPBS buffer without Ca^2+/Mg^2+ (e.g. Invitrogen, #14190-094) and detached from the bottom of the culture vessel by means of Accutase (PAA Laboratories, #L11-007) (incubation with Accutase for 15 min at 37° C.). The cell count then present is determined using a CASY™ cell counter (TCC model, Scharfe System) in order subsequently to apply 20,000 to 30,000 cells/well/100 μl of the described nutrient medium, depending on density optimisation for the individual cell line, to 96-well measuring plates of the Corning™ CeIIBIND™ type (flat clear-bottom black polystyrene microplates, #3340). Incubation is then carried out for one hour at room temperature, without gassing or adjusting the humidity, followed by incubation for 24 hours at 37° C., 5% CO2 and 95% humidity.
The voltage-sensitive fluorescent dye from the Membrane Potential Assay Kit (Red™ bulk format part R8123 for FLIPR, MDS Analytical Technologies™) is prepared by dissolving the contents of a vessel of Membrane Potential Assay Kit Red Component A in 200 ml of extracellular buffer (ES buffer, 120 mM NaCl, 1 mM KCl, 10 mM HEPES, 2 mM CaCl2, 2 mM MgCl2, 10 mM glucose; pH 7.4). After removal of the nutrient medium, the cells are washed with 200 μl of ES buffer, then covered with a layer of 100 μl of the dye solution prepared above and incubated for 45 min at room temperature with exclusion of light.
The fluorescence measurements are carried out with a BMG Labtech FLUOstar™, BMG Labtech NOVOstar™ or BMG Labtech POLARstar™ instrument (525 nm excitation, 560 nm emission, bottom-read mode). After incubation of the dye, 50 μl of the substances to be tested in the desired concentrations, or 50 μl of ES buffer for control purposes, are introduced into separate cavities of the measuring plate and incubated for 30 min at room temperature whilst being shielded from light. The fluorescence intensity of the dye is then measured for 5 min and the fluorescence value F1 of each well is thus determined at a given, constant time. 15 μl of a […] KCl solution ([…]) are then added to each well. The change in fluorescence is subsequently measured until all relevant measured values have been obtained (mainly 5-30 min). At a given time after KCl application, a fluorescence value F2 is determined, in this case at the time of the fluorescence peak.
For calculation, the fluorescence intensity F2 is compared with the fluorescence intensity F1, and the agonistic activity of the target compound on the potassium channel is determined therefrom. F2 and F1 are calculated as follows: […]
is determined by adding to the reaction batch only the buffer solution instead of the substance to be tested, determining the value F1K of the fluorescence intensity, adding the potassium ions as described above and measuring a value F2K of the fluorescence intensity. Then F2K and F1K are calculated as follows: […]
Calculations of EC50 values are carried out with the aid of Prism v4.0 software (GraphPad Software™).

Structure (SMILES): CCSc1nc2cc(C(F)(F)F)ccc2c(C)c1C(=O)NCC1CCCCCC1 [compound 29]
- EC50: 367 nM
- Emax at 1 µM: 86%

Structure (SMILES): CCSc1nc2cc(C(F)(F)F)ccc2c(C)c1C(=O)NCc1ccc(F)c(F)c1 [compound 31]
- EC50: 145 nM
- Emax at 1 µM: 159%

Structure (SMILES): CCSc1nc2cc(C(F)(F)F)ccc2c(C)c1C(=O)NCc1ccc(F)cc1F [compound 32]
- EC50: 59 nM
- Emax at 1 µM: 70%

Structure (SMILES): CCSc1nc2cc(C(F)(F)F)ccc2c(C)c1C(=O)NCc1cc(F)c(F)c(F)c1 [compound 33]
- EC50: 140 nM
- Emax at 1 µM: 162%

Structure (SMILES): CCSc1nc2cc(C(F)(F)F)ccc2c(C)c1C(=O)NCc1cc(F)c(F)cc1F [compound 34]
- EC50: 98 nM
- Emax at 1 µM: 72%

Structure (SMILES): CCSc1nc2cc(C(F)(F)F)ccc2c(C)c1C(=O)NCc1ccncc1 [compound 35]
- EC50: 2650 nM
- Emax at 1 µM: 142%

Structure (SMILES): CCSc1nc2cc(C(F)(F)F)ccc2c(C)c1C(=O)NCc1ccc(C(C)(C)C)cc1 [compound 36]
- EC50: 136 nM
- Emax at 1 µM: 93%

Structure (SMILES): CCSc1nc2cc(C(F)(F)F)ccc2c(C)c1C(=O)NCc1cccc(C(F)(F)F)c1 [compound 38]
- EC50: 76 nM
- Emax at 1 µM: 142%

Structure (SMILES): CCSc1nc2cc(C(F)(F)F)ccc2c(C)c1C(=O)NCCc1ccccc1 [compound 39]
- EC50: 473 nM
- Emax at 1 µM: 48%

Structure (SMILES): CCSc1nc2cc(C(F)(F)F)ccc2c(C)c1C(=O)NCCCc1ccccc1 [compound 40]
- EC50: 194 nM
- Emax at 1 µM: 152%

Structure (SMILES): CCSc1nc2cc(C(F)(F)F)ccc2c(C)c1C(=O)NCc1ccccn1 [compound 41]
- EC50: 1100 nM
- Emax at 1 µM: 121%

Structure (SMILES): CCSc1nc2cc(C(F)(F)F)ccc2c(C)c1C(=O)NCc1ccc2ccccc2c1 [compound 43]
- EC50: 159 nM
- Emax at 1 µM: 77%

Structure (SMILES): CCSc1nc2cc(C(F)(F)F)ccc2c(C)c1C(=O)NCc1nccs1 [compound 44]
- EC50: 587 nM
- Emax at 1 µM: 169%

Structure (SMILES): CCSc1nc2cc(C(F)(F)F)ccc2c(C)c1C(=O)NCc1nnco1 [compound 45]
- Emax at 1 µM: 23%

Structure (SMILES): CCCSc1nc2cc(C(F)(F)F)ccc2c(C)c1C(=O)NCc1cccc(F)c1 [compound 46]
- EC50: 141 nM
- Emax at 1 µM: 155%

Structure (SMILES): Cc1c(C(=O)NCc2cccc(F)c2)c(SC(C)C)nc2cc(C(F)(F)F)ccc12 [compound 47]
- EC50: 73 nM
- Emax at 1 µM: 152%

Structure (SMILES): Cc1c(C(=O)NCc2cccc(F)c2)c(SC2CCCC2)nc2cc(C(F)(F)F)ccc12 [compound 48]
- EC50: 56 nM
- Emax at 1 µM: 133%

Structure (SMILES): CCCCSc1nc2cc(C(F)(F)F)ccc2c(C)c1C(=O)NCc1cccc(F)c1 [compound 49]
- EC50: 74 nM
- Emax at 1 µM: 151%

Structure (SMILES): CCCCCSc1nc2cc(C(F)(F)F)ccc2c(C)c1C(=O)NCc1cccc(F)c1 [compound 50]
- EC50: 61 nM
- Emax at 1 µM: 150%

Structure (SMILES): CCC(C)Sc1nc2cc(C(F)(F)F)ccc2c(C)c1C(=O)NCc1cccc(F)c1 (centres unmarked) [compound 51]
- EC50: 37 nM
- Emax at 1 µM: 158%

Structure (SMILES): Cc1c(C(=O)NCc2cccc(F)c2)c(SC2CCCCC2)nc2cc(C(F)(F)F)ccc12 [compound 52]
- EC50: 64 nM
- Emax at 1 µM: 102%

Structure (SMILES): CCSc1nc2cc(C(F)(F)F)ccc2c(C)c1C(=O)NCCC1CCCC1 [compound 53]
- EC50: 256 nM
- Emax at 1 µM: 73%

Structure (SMILES): CCSc1nc2cc(C(F)(F)F)ccc2c(C)c1C(=O)NCCCC1CCCC1 [compound 54]
- EC50: 162 nM
- Emax at 1 µM: 229%

Structure (SMILES): CCSc1nc2cc(C(F)(F)F)ccc2c(C)c1C(=O)NCc1ccc(C(F)(F)F)cc1 [compound 55]
- EC50: 149 nM
- Emax at 1 µM: 167%

Structure (SMILES): CCSc1nc2cc(C(F)(F)F)ccc2c(C)c1C(=O)NCc1cccc(C(C)(C)C)c1 [compound 56]
- EC50: 67 nM
- Emax at 1 µM: 97%

Structure (SMILES): CCSc1nc2cc(C(F)(F)F)ccc2c(C)c1C(=O)NCCCC(C)C [compound 57]
- EC50: 150 nM
- Emax at 1 µM: 205%

Structure (SMILES): CCSc1nc2cc(C(F)(F)F)ccc2c(C)c1C(=O)NCc1ccc(C)s1 [compound 69]
- EC50: 858 nM
- Emax at 1 µM: 123%

Structure (SMILES): CCSc1nc2cc(C(F)(F)F)ccc2c(C)c1C(=O)NCc1cc(C)cs1 [compound 70]
- EC50: 1460 nM
- Emax at 1 µM: 114%

Structure (SMILES): CCSc1nc2cc(C(F)(F)F)ccc2c(C)c1C(=O)NCc1ccc(Cl)s1 [compound 71]
- EC50: 305 nM
- Emax at 1 µM: 163%

Structure (SMILES): CCSc1nc2cc(C(F)(F)F)ccc2c(C)c1C(=O)NCCc1cccs1 [compound 72]
- EC50: 732 nM
- Emax at 1 µM: 59%

Structure (SMILES): CCSc1nc2cc(C(F)(F)F)ccc2c(C)c1C(=O)NCC1CC2CCC1C2 (centres unmarked) [compound 73]
- Emax at 1 µM: 25%

Structure (SMILES): CCSc1nc2cc(C(F)(F)F)ccc2c(C)c1C(=O)NCc1ccccc1 [compound 74]
- EC50: 163 nM
- Emax at 1 µM: 128%

Structure (SMILES): CCSc1nc2cc(C(F)(F)F)ccc2c(C)c1C(=O)NCc1ccccc1F [compound 75]
- EC50: 71 nM
- Emax at 1 µM: 88%

Structure (SMILES): CCSc1nc2cc(C(F)(F)F)ccc2c(C)c1C(=O)NCc1ccccc1Cl [compound 78]
- Emax at 1 µM: 33%

Structure (SMILES): CCSc1nc2cc(C(F)(F)F)ccc2c(C)c1C(=O)NCc1cccc(Cl)c1 [compound 79]
- EC50: 124 nM
- Emax at 1 µM: 116%

Structure (SMILES): CCSc1nc2cc(C(F)(F)F)ccc2c(C)c1C(=O)NCc1ccc(Cl)cc1 [compound 80]
- EC50: 148 nM
- Emax at 1 µM: 135%

Structure (SMILES): CCSc1nc2cc(C(F)(F)F)ccc2c(C)c1C(=O)NCc1ccccc1C [compound 81]
- Emax at 1 µM: 28%

Structure (SMILES): CCSc1nc2cc(C(F)(F)F)ccc2c(C)c1C(=O)NCc1cccc(C)c1 [compound 82]
- EC50: 219 nM
- Emax at 1 µM: 108%

Structure (SMILES): CCSc1nc2cc(C(F)(F)F)ccc2c(C)c1C(=O)NCc1ccc(C)cc1 [compound 83]
- EC50: 242 nM
- Emax at 1 µM: 130%

Structure (SMILES): CCSc1nc2cc(C(F)(F)F)ccc2c(C)c1C(=O)NCc1ccccc1OC [compound 84]
- Emax at 1 µM: 25%

Structure (SMILES): CCSc1nc2cc(C(F)(F)F)ccc2c(C)c1C(=O)NCc1cccc(OC)c1 [compound 85]
- EC50: 413 nM
- Emax at 1 µM: 89%

Structure (SMILES): CCSc1nc2cc(C(F)(F)F)ccc2c(C)c1C(=O)NCc1ccc(OC)cc1 [compound 86]
- EC50: 565 nM
- Emax at 1 µM: 108%

Structure (SMILES): CCSc1nc2cc(C(F)(F)F)ccc2c(C)c1C(=O)NCc1cc(F)cc(F)c1 [compound 87]
- EC50: 144 nM
- Emax at 1 µM: 159%

Structure (SMILES): CSc1nc2cc(C(F)(F)F)ccc2c(C)c1C(=O)NCc1cccs1 [compound 88]
- EC50: 212 nM
- Emax at 1 µM: 154%

Structure (SMILES): CCSc1nc2cc(C(F)(F)F)ccc2cc1C(=O)NCC(C)(C)C [compound 90]
- EC50: 842 nM
- Emax at 1 µM: 53%

Structure (SMILES): CCSc1nc2ccccc2c(C)c1C(=O)NCc1cccs1 [compound 91]
- EC50: 1210 nM
- Emax at 1 µM: 50%

Structure (SMILES): CCSc1nc2ccccc2c(C)c1C(=O)NCc1cccc(F)c1 [compound 92]
- EC50: 950 nM
- Emax at 1 µM: 65%

Structure (SMILES): Cc1c(C(=O)NCc2cccc(F)c2)c(SC(C)(C)C)nc2cc(C(F)(F)F)ccc12 [compound 93]
- EC50: 88 nM
- Emax at 1 µM: 157%

Structure (SMILES): CCSc1nc2cc(C(C)(C)C)ccc2c(C)c1C(=O)NCc1cccc(F)c1 [compound 95]
- EC50: 627 nM
- Emax at 1 µM: 96%

Structure (SMILES): CCSc1nc2cc(C(C)(C)C)ccc2c(C)c1C(=O)NCc1ccc(F)cc1 [compound 96]
- EC50: 808 nM
- Emax at 1 µM: 101%

Structure (SMILES): CCSc1nc2cc(OC)ccc2c(C)c1C(=O)NCc1cccc(F)c1 [compound 97]
- EC50: 622 nM
- Emax at 1 µM: 60%

Structure (SMILES): CCSc1nc2cc(OC)ccc2c(C)c1C(=O)NCc1ccc(F)cc1 [compound 98]
- EC50: 404 nM
- Emax at 1 µM: 70%

Structure (SMILES): CCSc1nc2ccc(C)cc2c(C)c1C(=O)NCc1cccc(F)c1 [compound 99]
- EC50: 623 nM
- Emax at 1 µM: 90%
